“And” between values parts separate entries of the source, which are not always exact repeats. Identical values can stand only once. Toxic doses and inconclusive results are not listed. Rule for the calls: active = survival T/C of 150% or more; inactive = T/C below 125% in these data.
Tested on: CD2F1 mice, L1210 leukemia ip, survival T/C
Assay: NCI In Vivo Anticancer Drug Screen. Data for tumor model L1210 Leukemia (intraperitoneal) in CD2F1 (CDF1) mice
Details: higher = longer survival
Summary of the method: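 Activity against a transplanted murine tumor was judged by comparing the compound group with a vehicle group. The outcome in the treated animals was divided by that in the controls.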

[1] = endpoint: mean survival time, dose: 100.0 mg/kg/injection, schedule: Q01DX001 (ip), vehicle: saline with Tween-80
[2] = endpoint: mean survival time, dose: 200.0 mg/kg/injection, schedule: Q01DX001 (ip), vehicle: saline with Tween-80
[3] = endpoint: mean survival time, dose: 400.0 mg/kg/injection, schedule: Q01DX001 (ip), vehicle: saline with Tween-80
[4] = endpoint: mean survival time, dose: 100.0 mg/kg/injection, schedule: Q04DX003 (ip), vehicle: saline with Tween-80
[5] = endpoint: mean survival time, dose: 100.0 mg/kg/injection, schedule: Q04DX003 (ip), vehicle: saline
[6] = endpoint: mean survival time, dose: 200.0 mg/kg/injection, schedule: Q04DX003 (ip), vehicle: saline
[7] = endpoint: mean survival time, dose: 400.0 mg/kg/injection, schedule: Q04DX003 (ip), vehicle: saline
[8] = endpoint: mean survival time, dose: 50.0 mg/kg/injection, schedule: Q04DX002 (ip), vehicle: saline with Tween-80
[9] = endpoint: mean survival time, dose: 100.0 mg/kg/injection, schedule: Q04DX002 (ip), vehicle: saline with Tween-80
[10] = endpoint: mean survival time, dose: 100.0 mg/kg/injection, schedule: Q04DX003 (ip), vehicle: Klucel (hydroxypropylcellulose) (HPC)
[11] = endpoint: mean survival time, dose: 50.0 mg/kg/injection, schedule: Q01DX009 (ip), vehicle: saline with Tween-80
[12] = endpoint: mean survival time, dose: 100.0 mg/kg/injection, schedule: Q01DX009 (ip), vehicle: saline with Tween-80
[13] = endpoint: mean survival time, dose: 200.0 mg/kg/injection, schedule: Q01DX009 (ip), vehicle: saline with Tween-80
[14] = endpoint: mean survival time, dose: 100.0 mg/kg/injection, schedule: Q01DX001 (ip), vehicle: saline
[15] = endpoint: mean survival time, dose: 200.0 mg/kg/injection, schedule: Q01DX001 (ip), vehicle: saline

Measured: T/C

CO[C@@]12[C@@H]3N[C@@H]3CN1C1=C(C(=O)C(Nc3nc(C)cs3)=C(C)C1=O)[C@@H]2COC(N)=O
inactive: endpoint: mean survival time, dose: 1.5 mg/kg/injection, schedule: Q01DX001 (ip), vehicle: water 116 % of control and 112 % of control | endpoint: mean survival time, dose: 3.0 mg/kg/injection, schedule: Q01DX001 (ip), vehicle: water 115 % of control | endpoint: mean survival time, dose: 6.0 mg/kg/injection, schedule: Q01DX001 (ip), vehicle: water 121 % of control

O=C(c1cccnc1)C1Cc2ccccc2C1=O (configuration not stated)
inactive: endpoint: mean survival time, dose: 100.0 mg/kg/injection, schedule: Q01DX009 (ip), vehicle: saline sonified 102 % of control | endpoint: mean survival time, dose: 200.0 mg/kg/injection, schedule: Q01DX009 (ip), vehicle: saline sonified 96 % of control | endpoint: mean survival time, dose: 400.0 mg/kg/injection, schedule: Q01DX009 (ip), vehicle: saline sonified 94 % of control

O=C1C(O)=Cc2coc(=O)c3ccc(-c4ccccc4)c1c23
inactive: [1] 91 % of control

CCCC/C=C\C=C/CCCC
inactive: [1] 102 % of control | [2] 102 % of control | [3] 94 % of control

Cc1oc2ccc(NS(=O)(=O)c3ccccc3)cc2c1C(=O)O
inactive: [4] 97 % of control

CNc1cc(=O)[nH]cn1
inactive: [1] 95 % of control | [2] 100 % of control | [3] 101 % of control

CC(=O)OC1CCC2(C)C3CCC4(C)C(OC(=O)c5ccccc5)CCC4C3C3C(=O)OC32C1 (configuration not stated)
inactive: [1] 91 % of control | [2] 90 % of control and 96 % of control | [3] 88 % of control

COC(=O)C1=CCN(C)CC1
inactive: [5] 97 % of control | [6] 96 % of control | [7] 90 % of control

CN(C)/N=C/c1ccc(-c2ccccc2)cc1
inactive: [1] 101 % of control | [2] 103 % of control | [3] 112 % of control

COc1c(NC(=O)Nc2ccccc2C)cccc1[N+](=O)[O-]
inactive: [8] 94 % of control | [9] 90 % of control and 96 % of control

Cc1ccc(-c2nc(SCc3ccc(Cl)cc3)[nH]c(=O)c2CCO)cc1
inactive: [10] 96 % of control | endpoint: mean survival time, dose: 200.0 mg/kg/injection, schedule: Q04DX003 (ip), vehicle: Klucel (hydroxypropylcellulose) (HPC) 87 % of control

C#CCN(C)CCO
inactive: endpoint: mean survival time, dose: 100.0 mg/kg/injection, schedule: Q01DX009 (ip), vehicle: acetone 103 % of control | endpoint: mean survival time, dose: 200.0 mg/kg/injection, schedule: Q01DX009 (ip), vehicle: acetone 97 % of control | endpoint: mean survival time, dose: 400.0 mg/kg/injection, schedule: Q01DX009 (ip), vehicle: acetone 100 % of control

CCNC(=S)Nc1ccccc1
inactive: [11] 103 % of control | [12] 100 % of control | [13] 111 % of control

CN(C(=O)c1c(Cl)n(C)c2ccccc12)c1ccccc1
inactive: endpoint: mean survival time, dose: 25.0 mg/kg/injection, schedule: Q04DX003 (ip), vehicle: Klucel (hydroxypropylcellulose) (HPC) 98 % of control | endpoint: mean survival time, dose: 50.0 mg/kg/injection, schedule: Q04DX003 (ip), vehicle: Klucel (hydroxypropylcellulose) (HPC) 101 % of control | [10] 104 % of control

CC(=O)Oc1cc2c(=O)oc3cc(OC(C)=O)c(=O)oc3c2c(OC(C)=O)c1OC(C)=O
inactive: [14] 98 % of control | [15] 101 % of control | endpoint: mean survival time, dose: 400.0 mg/kg/injection, schedule: Q01DX001 (ip), vehicle: saline 110 % of control

COc1ccccc1C(=O)CC(O)(C(F)(F)F)C(F)(F)F
inactive: [1] 95 % of control | [2] 100 % of control | [3] 109 % of control

CCCCCCCCC(=O)N1CCOCC1
inactive: [12] 108 % of control | endpoint: mean survival time, dose: 150.0 mg/kg/injection, schedule: Q04DX003 (ip), vehicle: saline 96 % of control

CC(C)(C)C(=O)CC(=O)C(C)(C)C.CC(C)(C)C(=O)CC(=O)C(C)(C)C.CC(C)(C)C(=O)CC(=O)C(C)(C)C.[Sc]
inactive: endpoint: mean survival time, dose: 50.0 mg/kg/injection, schedule: Q04DX003 (ip), vehicle: saline with Tween-80 94 % of control | [4] 94 % of control and 100 % of control | endpoint: mean survival time, dose: 200.0 mg/kg/injection, schedule: Q04DX003 (ip), vehicle: saline with Tween-80 97 % of control and 104 % of control | endpoint: mean survival time, dose: 400.0 mg/kg/injection, schedule: Q04DX003 (ip), vehicle: saline with Tween-80 95 % of control

C[n+]1c(/C=C\c2cccc([N+](=O)[O-])c2)ccc2ccccc21
inactive: [1] 106 % of control | [12] 87 % of control | [2] 95 % of control | [13] 91 % of control | [3] 107 % of control | endpoint: mean survival time, dose: 400.0 mg/kg/injection, schedule: Q01DX009 (ip), vehicle: saline with Tween-80 95 % of control

CCCCCCCCC(=O)c1c(OC)oc(/C=N/Nc2ccccc2)cc1=O
inactive: endpoint: mean survival time, dose: 4.7 mg/kg/injection, schedule: Q01DX009 (ip), vehicle: Klucel (hydroxypropylcellulose) (HPC) 103 % of control | endpoint: mean survival time, dose: 9.38 mg/kg/injection, schedule: Q01DX009 (ip), vehicle: Klucel (hydroxypropylcellulose) (HPC) 103 % of control | endpoint: mean survival time, dose: 18.75 mg/kg/injection, schedule: Q01DX009 (ip), vehicle: Klucel (hydroxypropylcellulose) (HPC) 103 % of control | endpoint: mean survival time, dose: 37.5 mg/kg/injection, schedule: Q01DX009 (ip), vehicle: Klucel (hydroxypropylcellulose) (HPC) 98 % of control | endpoint: mean survival time, dose: 75.0 mg/kg/injection, schedule: Q01DX009 (ip), vehicle: Klucel (hydroxypropylcellulose) (HPC) 92 % of control

O=C1C(CO)=C[C@@H](O)[C@H]2O[C@@H]12
inactive: [5] 100 % of control | [6] 102 % of control | [7] 102 % of control

COC(=O)C([NH-])c1ccccc1.COC(=O)C([NH-])c1ccccc1.[Cl][Pt+2][Cl] (configuration not stated)
inactive: endpoint: median survival time, dose: 3.12 mg/kg/injection, schedule: Q04DX003 (ip), vehicle: saline 101 % of control | endpoint: median survival time, dose: 6.25 mg/kg/injection, schedule: Q04DX003 (ip), vehicle: saline 100 % of control | endpoint: median survival time, dose: 12.5 mg/kg/injection, schedule: Q04DX003 (ip), vehicle: saline 100 % of control | endpoint: median survival time, dose: 25.0 mg/kg/injection, schedule: Q04DX003 (ip), vehicle: saline 101 % of control | endpoint: median survival time, dose: 50.0 mg/kg/injection, schedule: Q04DX003 (ip), vehicle: saline 101 % of control | endpoint: median survival time, dose: 100.0 mg/kg/injection, schedule: Q04DX003 (ip), vehicle: saline 103 % of control

c1ccc(C[n+]2ccccc2)cc1
inactive: endpoint: mean survival time, dose: 12.5 mg/kg/injection, schedule: Q01DX009 (ip), vehicle: saline 100 % of control | endpoint: mean survival time, dose: 25.0 mg/kg/injection, schedule: Q01DX009 (ip), vehicle: saline 100 % of control | [11] 100 % of control | endpoint: mean survival time, dose: 50.0 mg/kg/injection, schedule: Q01DX009 (ip), vehicle: saline 106 % of control

NC(CC(=O)CCl)C(=O)O (configuration not stated)
inactive: endpoint: mean survival time, dose: 6.25 mg/kg/injection, schedule: Q04DX003 (ip), vehicle: saline 120 % of control | endpoint: mean survival time, dose: 37.5 mg/kg/injection, schedule: Q04DX003 (ip), vehicle: saline 109 % of control | endpoint: median survival time, dose: 10.0 mg/kg/injection, schedule: Q01DX001 (ip), vehicle: saline 121 % of control | endpoint: median survival time, dose: 20.0 mg/kg/injection, schedule: Q01DX001 (ip), vehicle: saline 121 % of control | endpoint: median survival time, dose: 30.0 mg/kg/injection, schedule: Q01DX009 (ip), vehicle: saline 122 % of control | endpoint: median survival time, dose: 40.0 mg/kg/injection, schedule: Q01DX001 (ip), vehicle: saline 122 % of control | endpoint: median survival time, dose: 60.0 mg/kg/injection, schedule: Q01DX009 (ip), vehicle: saline 35 % of control

O=C1O/C(=C2/OC(=O)c3ccccc32)c2ccccc21
inactive: [8] 92 % of control | [9] 92 % of control | endpoint: mean survival time, dose: 200.0 mg/kg/injection, schedule: Q04DX002 (ip), vehicle: saline with Tween-80 92 % of control | endpoint: mean survival time, dose: 400.0 mg/kg/injection, schedule: Q04DX002 (ip), vehicle: saline with Tween-80 96 % of control

[Cl][Pt+2][Cl].[NH-]c1nc(-c2ccccc2)cs1.[NH-]c1nc(-c2ccccc2)cs1
inactive: endpoint: mean survival time, dose: 3.13 mg/kg/injection, schedule: Q04DX003 (ip), vehicle: distilled water + Tween-80 101 % of control | endpoint: mean survival time, dose: 6.25 mg/kg/injection, schedule: Q04DX003 (ip), vehicle: distilled water + Tween-80 101 % of control | endpoint: mean survival time, dose: 12.5 mg/kg/injection, schedule: Q04DX003 (ip), vehicle: distilled water + Tween-80 96 % of control | endpoint: mean survival time, dose: 25.0 mg/kg/injection, schedule: Q04DX003 (ip), vehicle: distilled water + Tween-80 102 % of control | endpoint: mean survival time, dose: 50.0 mg/kg/injection, schedule: Q04DX003 (ip), vehicle: distilled water + Tween-80 96 % of control | endpoint: mean survival time, dose: 100.0 mg/kg/injection, schedule: Q04DX003 (ip), vehicle: distilled water + Tween-80 98 % of control | endpoint: mean survival time, dose: 200.0 mg/kg/injection, schedule: Q04DX003 (ip), vehicle: distilled water + Tween-80 98 % of control

O=C(O)C[Se]CC(=O)O
inactive: [14] 109 % of control | [15] 103 % of control

From PubChem BioAssay AID256 (DTP/NCI, 2004)
